This passage reports IC50 results from patent EP4786455A1, “NOVEL PHTHALAZINE DERIVATIVE COMPOUND AS SOS1 INHIBITOR, AND USE THEREOF” (Hanmi Pharmaceutical Co., Ltd., priority 2023, dated 2025).

In the assay the target is T1, SOS1 (Homo sapiens, UniProt Q07889).
T1 construct: comprising amino acid residues 564-1049 corresponding to the catalytic domain; purchased Reaction Biology Corp. SOS1-Strep #MSC-11-502; GST-KRAS G12C #MSC-11-538
T1 sequence (Q07889 564-1049): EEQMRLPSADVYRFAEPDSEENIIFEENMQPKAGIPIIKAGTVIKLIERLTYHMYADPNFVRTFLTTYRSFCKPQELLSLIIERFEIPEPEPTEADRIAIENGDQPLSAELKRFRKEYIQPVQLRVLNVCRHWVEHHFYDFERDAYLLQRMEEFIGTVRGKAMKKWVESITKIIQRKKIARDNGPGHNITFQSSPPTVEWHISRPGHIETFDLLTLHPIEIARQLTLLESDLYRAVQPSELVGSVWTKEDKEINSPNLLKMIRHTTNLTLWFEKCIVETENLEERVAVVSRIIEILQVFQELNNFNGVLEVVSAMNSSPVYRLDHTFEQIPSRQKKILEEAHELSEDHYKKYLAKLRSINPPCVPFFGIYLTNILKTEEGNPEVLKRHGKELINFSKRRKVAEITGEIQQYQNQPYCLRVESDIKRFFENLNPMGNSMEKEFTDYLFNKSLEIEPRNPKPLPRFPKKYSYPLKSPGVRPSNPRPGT
Nature of the assay: Inhibitory activity on SOS1-mediated GTP exchange (HTRF / TR-FRET nucleotide exchange assay on KRAS G12C). The class given is biochemical. The following applies: SOS1-mediated GTP exchange on GST-KRAS G12C (residues 2-169); SOS1-Strep catalytic domain (564-1049); GTP-DY-647P1; HTRF signal; 5-point concentration series up to 1,000 nM. On the procedure:
To evaluate whether the SOS1-mediated nucleotide exchange activity on KRAS G12C is inhibited by the compounds of the above Examples, a homogeneous time-resolved fluorescence (homogenous time-resolved fluorescence, HTRF) assay was performed using GST-KRAS G12C (#MSC-11-538) and SOS1-Strep (#MSC-11-502) obtained from Reaction Biology Corp. (USA, MA). The activity of SOS1 was determined by measuring the amount of GTP bound to the KRAS G12C protein based on the principle of time-resolved fluorescence resonance energy transfer (time-resolved fluorescence energy transfer, TR-FRET). Terbium (Terbium) conjugated to an anti-GST antibody bound to the GST tag of the GST-KRAS G12C protein served as a FRET donor, and GTP bound to the KRAS G12C protein was labeled with the fluorophore DY-647P1, serving as a FRET acceptor. Based on this principle, a higher HTRF or FRET signal is observed as more GTP is bound to KRAS G12C due to the SOS1-mediated exchange reaction in the assay.
In summary, a GST-labeled KRAS G12C protein (comprising amino acid residues 2-169), a […] SOS1 protein (comprising amino acid residues 564-1049 corresponding to the catalytic domain), an anti-GST antibody, labeled nucleotide GTP-DY-647P1, and the test compound were mixed in a buffer solution containing 20 mM HEPES (pH 7.4), 150 mM NaCl, 5 mM MgCl2, 1 mM dithiothreitol (DTT), 0.05% BSA, and 0.0025% NP40. The mixture was dispensed into a 384-well plate, incubated at room temperature, and the HTRF signal was measured using a PHERAstar microplate reader (BMG Labtech). The excitation wavelength was 337 nm, and emission was measured at 620/665 nm. A background signal value was determined from fluorescence measurements obtained in the absence of SOS1 protein and was subtracted from all measured HTRF values. A control value was determined from fluorescence measurements obtained in the absence of the synthesized compounds and was set as the 100% reference. Fluorescence signals were measured at compound concentrations of 0.1, 1, 10, 100, and 1,000 nM (5 points, 10-fold) or 1.6, 8, 40, 200, and 1,000 nM (5 points, 5-fold). The 50% inhibitory concentration (IC50) values of the compounds were calculated using GraphPad Prism.
IC50 values were denoted as +++ when 50 nM or less, ++ when greater than 50 nM and 100 nM or less, and + when greater than 100 nM.
For orientation: In TR-FRET formats the signal depends on donor and acceptor labels being close together.

As a reminder, the IC50 is the concentration that gives 50% inhibition. Read a low IC50 as higher potency. Turning to `CNc1cc2c(N[C@H](C)c3cccc(C#N)c3C)nnc(C)c2cc1C(=O)NCCN1CCOCC1` [Example 23, (R)-1-((1-(3-cyano-2-methylphenyl)ethyl)amino)-4-methyl-7-(methylamino)-N-(2-morpholinoethyl)phthalazine-6-carboxamide], the IC50 is not above 50 nM.

With `CNc1cc2c(N[C@H](C)c3cccc(C#N)c3C)nnc(C)c2cc1C(=O)N1CCCOCC1` [Example 24, (R)-2-methyl-3-(1-((4-methyl-7-(methylamino)-6-(1,4-oxazepane-4-carbonyl)phthalazin-1-yl)amino)ethyl)benzonitrile], the IC50 was not above 50 nM.

The compound `CNc1cc2c(N[C@H](C)c3cc(N)cc(C(F)(F)F)c3)nnc(C)c2cc1C(=O)N1CCOCC1` [Example 25, (R)-(1-((1-(3-amino-5-(trifluoromethyl)phenyl)ethyl)amino)-4-methyl-7-(methylamino)phthalazin-6-yl)(morpholino)methanone] yielded an IC50 not above 50 nM.

Turning to `CNc1cc2c(N[C@H](C)c3cc(N)cc(C(F)F)c3F)nnc(C)c2cc1C(=O)N1CCOCC1` [Example 26, (R)-(1-((1-(5-amino-3-(difluoromethyl)-2-fluorophenyl)ethyl)amino)-4-methyl-7-(methylamino)phthalazin-6-yl)(morpholino)methanone], the 50% inhibitory concentration (IC50) is not above 50 nM.

Consider `CNc1cc2c(N[C@H](C)c3cccc(C(F)(F)CO)c3)nnc(C)c2cc1C(=O)N1CCOCC1` [Example 27, (R)-(1-((1-(3-(1,1-difluoro-2-hydroxyethyl)phenyl)ethyl)amino)-4-methyl-7-(methylamino)phthalazin-6-yl)(morpholino)methanone], for which the IC50 is not above 50 nM.

Turning to `COc1cc2c(N[C@H](C)c3cccc(C#N)c3C)nnc(C)c2cc1CN1CCOCC1` [Example 28, (R)-3-(1-((7-methoxy-4-methyl-6-(morpholinomethyl)phthalazin-1-yl)amino)ethyl)-2-methylbenzonitrile], the IC50 is not above 50 nM.

With `CNc1cc2c(N[C@H](C)c3cccc(C#N)c3C)nnc(C)c2cc1CN1CCOCC1` [Example 29, (R)-2-methyl-3-(1-((4-methyl-7-(methylamino)-6-(morpholinomethyl)phthalazin-1-yl)amino)ethyl)benzonitrile], the IC50 is not above 50 nM.

`Cc1c(C#N)cccc1[C@@H](C)Nc1nnc(C)c2cc(CN3CCOCC3)c(NC3CCCC3)cc12` [Example 30, (R)-3-(1-((7-(cyclopentylamino)-4-methyl-6-(morpholinomethyl)phthalazin-1-yl)amino)ethyl)-2-methylbenzonitrile] had a half-inhibitory concentration (IC50) not above 50 nM.

`Cc1c(C#N)cccc1[C@@H](C)Nc1nnc(C)c2cc(CN3CCN(C4CC4)CC3)c(NC3CCCC3)cc12` [Example 31, (R)-3-(1-((7-(cyclopentylamino)-6-((4-cyclopropylpiperazin-1-yl)methyl)-4-methylphthalazin-1-yl)amino)ethyl)-2-methylbenzonitrile] came in with an IC50 not above 50 nM.

The compound `COc1cc2c(N[C@H](C)c3cccc(C#N)c3C)nnc(C)c2cc1C(=O)N1CCOCC1` [Example 32, (R)-3-(1-((7-methoxy-4-methyl-6-(morpholine-4-carbonyl)phthalazin-1-yl)amino)ethyl)-2-methylbenzonitrile] showed an IC50 not above 50 nM.

As for `Cc1c(C#N)cccc1[C@@H](C)Nc1nnc(C)c2cc(C(=O)N3CCOCC3)c(NC3CCCC3)cc12` [Example 33], the IC50 was not above 50 nM.
